Experimental data: patent publication US10336762B2 (priority 2017, dated 2019)

How the values were obtained:
IRAK4 enzyme = IRAK4 enzyme (Homo sapiens (Human), UniProt Q9NWZ3); test: biochemical; format: biochemical; details: IRAK4 enzyme, TR-FRET (HTRF), 500 μM ATP
TNFα = test: cells; format: cell-based, human; details: Homo sapiens, Monocyte, LPS-stimulated human monocytes, TNFα content; read-out: EC50 TNF

IRAK4 enzyme, sequence (Q9NWZ3 whole entry): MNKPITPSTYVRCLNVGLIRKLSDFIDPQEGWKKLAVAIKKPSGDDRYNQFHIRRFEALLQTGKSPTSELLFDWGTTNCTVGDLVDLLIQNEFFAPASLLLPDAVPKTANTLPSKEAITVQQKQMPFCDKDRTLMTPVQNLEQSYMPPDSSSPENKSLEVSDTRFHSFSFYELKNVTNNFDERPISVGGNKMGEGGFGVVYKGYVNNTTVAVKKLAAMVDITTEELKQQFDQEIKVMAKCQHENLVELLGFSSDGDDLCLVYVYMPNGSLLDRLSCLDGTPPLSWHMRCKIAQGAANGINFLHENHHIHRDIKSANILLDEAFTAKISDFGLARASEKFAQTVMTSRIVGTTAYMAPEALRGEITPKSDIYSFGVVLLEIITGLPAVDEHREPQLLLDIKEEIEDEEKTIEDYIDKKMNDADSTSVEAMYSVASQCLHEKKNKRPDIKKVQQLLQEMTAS

Structure (SMILES)	IC50 (IRAK4 enzyme)	EC50 (TNFα)
CC(=O)NC12CC(Nc3cc(-c4ccc5cc(C#N)cnn45)ncc3C(=O)NC3(C#N)CC3)(C1)C2 [Example 492, 4-((3-acetamido-bicyclo[1.1.1]pentan-1-yl)amino)-N-(1-cyano-cyclopropyl)-6-(3-cyanopyrrolo[1,2-b]pyridazin-7-yl)nicotinamide]	1 nM	101 nM
CC(=O)Nc1nc(NC(=O)c2cnc(-c3ccc4cc(C#N)cnn34)cc2NC(C)C)cs1 [Example 493, N-(2-acetamidothiazol-4-yl)-6-(3-cyanopyrrolo[1,2-b]pyridazin-7-yl)-4-(isopropylamino)nicotinamide]	12 nM	> 10000 nM
CC(=O)NC12CC(Nc3cc(-c4ccc5cc(C#N)cnn45)ncc3C(=O)NC[C@@H](F)C(C)(C)F)(C1)C2 [Example 494, (R)-4-((3-acetamido-bicyclo[1.1.1]pentan-1-yl)amino)-6-(3-cyano-pyrrolo[1,2-b]pyridazin-7-yl)-N-(2,3-difluoro-3-methylbutyl)nicotinamide]	< 1 nM	44 nM
COC(C)(C)[C@H](F)CNC(=O)c1cnc(-c2ccc3cc(C#N)cnn23)cc1NC12CC(NC(C)=O)(C1)C2 [Example 495, (R)-4-((3-acetamidobicyclo[1.1.1]pentan-1-yl)amino)-6-(3-cyanopyrrolo[1,2-b]pyridazin-7-yl)-N-(2-fluoro-3-methoxy-3-methylbutyl)nicotinamide]	< 1 nM	40 nM
CC(=O)NC12CC(Nc3cc(-c4ccc5cc(C#N)cnn45)ncc3C(=O)NCC#N)(C1)C2 [Example 496, 4-((3-acetamidobicyclo[1.1.1]pentan-1-yl)amino)-N-(cyanomethyl)-6-(3-cyanopyrrolo[1,2-b]pyridazin-7-yl)nicotinamide]	< 1 nM	42 nM
[2H]C([2H])([2H])NC(=O)c1cnc(-c2ccc3cc(C#N)cnn23)cc1NC12CC(NC(C)=O)(C1)C2 [Example 497, 4-((3-acetamidobicyclo[1.1.1]pentan-1-yl)amino)-6-(3-cyanopyrrolo[1,2-b]pyridazin-7-yl)-N-(methyl-d3)nicotinamide]	1 nM	55 nM
CNC(=O)c1cnc(-c2ccc3cc(C#N)cnn23)cc1NC12CC(NC(C)=O)(C1)C2 [Example 498, 4-((3-acetamidobicyclo[1.1.1]pentan-1-yl)amino)-6-(3-cyanopyrrolo[1,2-b]pyridazin-7-yl)-N-methyl-nicotinamide]	1 nM	43 nM
CC(=O)NC12CCC(Nc3cc(-c4ccc5cc(C#N)cnn45)ncc3C(=O)NC[C@@H](F)C(C)(C)O)(CC1)C2 [Example 499, (R)-4-((4-acetamidobicyclo[2.2.1]heptan-1-yl)amino)-6-(3-cyanopyrrolo[1,2-b]pyridazin-7-yl)-N-(2-fluoro-3-hydroxy-3-methylbutyl)nicotinamide]	1 nM	20 nM
COC(=O)NC12CCC(Nc3cc(-c4ccc5cc(C#N)cnn45)ncc3C(=O)NC[C@@H](F)C(C)(C)O)(CC1)C2 [Example 500, (R)-methyl (4-((2-(3-cyano-pyrrolo[1,2-b]pyridazin-7-yl)-5-((2-fluoro-3-hydroxy-3-methylbutyl)carbamoyl)pyridin-4-yl)amino)bicyclo[2.2.1]heptan-1-yl)carbamate]	1 nM	13 nM
CC(=O)O[C@@H]1CCC[C@H](Nc2cc(-c3ccc4cc(C#N)cnn34)ncc2C(=O)NC[C@@H](F)C(C)(C)O)C1 [Example 501, (1R,3S)-3-((2-(3-cyanopyrrolo[1,2-b]pyridazin-7-yl)-5-(((R)-2-fluoro-3-hydroxy-3-methylbutyl)carbamoyl)pyridin-4-yl)amino)cyclohexyl acetate]	2 nM	63 nM
N#Cc1cnn2c(-c3cc(Nc4cccnc4)c(C(=O)N[C@H]4CC[C@H](NC(=O)C5CC5)CC4)cn3)ccc2c1 [Example 502, 6-(3-cyanopyrrolo[1,2-b]pyridazin-7-yl)-N-((1r,4r)-4-(cyclopropane-carboxamido)cyclohexyl)-4-(pyridin-3-ylamino) nicotinamide]	1 nM	93 nM
CC(C)(O)[C@H](F)CNC(=O)c1cnc(-c2ccc3cc(C#N)cnn23)cc1NC12CCC(F)(CC1)CC2 [Example 503, (R)-6-(3-cyanopyrrolo[1,2-b]pyridazin-7-yl)-N-(2-fluoro-3-hydroxy-3-methylbutyl)-4-((4-fluorobicyclo[2.2.2]octan-1-yl)amino)nicotinamide]	2 nM	46 nM
CC(C)(O)[C@H](F)CNC(=O)c1cnc(-c2ccc3cc(C#N)cnn23)cc1N[C@@]12CC[C@@H](C1)[C@@H](O)C2 [Example 504, 6-(3-cyanopyrrolo[1,2-b]pyridazin-7-yl)-N-((R)-2-fluoro-3-hydroxy-3-methylbutyl)-4-(((1S,3S,4S)-3-hydroxybicyclo[2.2.1]heptan-1-yl)amino) nicotinamide]	< 1 nM	14 nM
C=CC(=O)N[C@H]1CC[C@H](NC(=O)c2cnc(-c3ccc4cc(C#N)cnn34)cc2NC2CCCC(O)C2)CC1 (stereo partly drawn) [Example 505, N-((1r,4S)-4-acrylamidocyclohexyl)-6-(3-cyanopyrrolo[1,2-b]pyridazin-7-yl)-4-(((1S,3R)-3-hydroxycyclohexyl)amino)nicotinamide]	1 nM	139 nM
N#Cc1cnn2c(-c3cc(NC45CCC(O)(CC4)CC5)c(C(=O)NC4CCC(NC(=O)C5CC5)CC4)cn3)ccc2c1 (stereo not drawn) [Example 506, 6-(3-cyanopyrrolo[1,2-b]pyridazin-7-yl)-N-((1r,4r)-4-(cyclopropane-carboxamido)cyclohexyl)-4-((4-hydroxybicyclo[2.2.2]octan-1-yl)amino) nicotinamide]	< 1 nM	50 nM
COC(=O)NC12CC(Nc3cc(-c4ccc5cc(C#N)cnn45)ncc3C(=O)NC[C@@H](F)C(C)(C)O)(C1)C2 [Example 507, (R)-methyl (3-((2-(3-cyanopyrrolo[1,2-b]pyridazin-7-yl)-5-((2-fluoro-3-hydroxy-3-methylbutyl)carbamoyl)pyridin-4-yl)amino)bicyclo[1.1.1]pentan-1-yl)carbamate]	< 1 nM	27 nM
CC(=O)NC12CC(Nc3cc(-c4ccc5cc(C#N)cnn45)ncc3C(=O)NC[C@@H](F)C(C)(C)O)(C1)C2 [Example 508, (R)-4-((3-acetamidobicyclo[1.1.1]pentan-1-yl)amino)-6-(3-cyanopyrrolo[1,2-b]pyridazin-7-yl)-N-(2-fluoro-3-hydroxy-3-methyl-butyl)nicotinamide]	< 1 nM	22 nM
CC(C)(O)[C@H](F)CNC(=O)c1cnc(-c2ccc3cc(C#N)cnn23)cc1NC1CCCC(F)C1 (stereo partly drawn) [Example 509, 6-(3-cyanopyrrolo[1,2-b]pyridazin-7-yl)-N-((R)-2-fluoro-3-hydroxy-3-methylbutyl)-4-(((1S)-3-fluorocyclohexyl)amino) nicotinamide]	< 1 nM	66 nM
CC1(O)CC2(CC(Nc3cc(-c4ccc5cc(C#N)cnn45)ncc3C(=O)NC[C@@H](F)C(C)(C)O)C2)C1 (stereo partly drawn) [Example 510, (R)-6-(3-cyanopyrrolo[1,2-b]pyridazin-7-yl)-N-(2-fluoro-3-hydroxy-3-methylbutyl)-4-((6-hydroxy-6-methylspiro[3.3]heptan-2-yl)amino)nicotinamide]	< 1 nM	39 nM
CC(C)(O)[C@H](F)CNC(=O)c1cnc(-c2ccc3cc(C#N)cnn23)cc1NC1CC2(CC(O)C2)C1 (stereo partly drawn) [Example 511, (R)-6-(3-cyano-pyrrolo[1,2-b]pyridazin-7-yl)-N-(2-fluoro-3-hydroxy-3-methylbutyl)-4-((6-hydroxyspiro[3.3]heptan-2-yl)amino) nicotinamide]	< 1 nM	26 nM
CNC(=O)c1cnc(-c2ccc3cc(C#N)cnn23)cc1N[C@H]1CCC[C@@H](O)C1 [Example 512, 6-(3-cyanopyrrolo[1,2-b]pyridazin-7-yl)-4-(((1S,3R)-3-hydroxy-cyclohexyl)amino)-N-methylnicotinamide]	3 nM	98 nM
N#Cc1cnn2c(-c3cc(N[C@H]4CCC[C@@H](O)C4)c(C(=O)NC4(C#N)CC4)cn3)ccc2c1 [Example 513, N-(1-cyanocyclopropyl)-6-(3-cyanopyrrolo[1,2-b]pyridazin-7-yl)-4-(((1S,3R)-3-hydroxy-cyclohexyl)amino) nicotinamide]	2 nM	110 nM
N#Cc1cnn2c(-c3cc(N[C@H]4CCC[C@@H](O)C4)c(C(=O)NC4CC4)cn3)ccc2c1 [Example 514, 6-(3-cyanopyrrolo[1,2-b]pyridazin-7-yl)-N-cyclopropyl-4-(((1S,3R)-3-hydroxy-cyclohexyl)amino) nicotinamide]	9 nM	213 nM
COC(C)(C)[C@H](F)CNC(=O)c1cnc(-c2ccc3cc(C#N)cnn23)cc1N[C@H]1CCC[C@@H](O)C1 [Example 518, 6-(3-cyanopyrrolo[1,2-b]pyridazin-7-yl)-N-((R)-2-fluoro-3-methoxy-3-methylbutyl)-4-(((1S,3R)-3-hydroxycyclohexyl)amino) nicotinamide]	< 1 nM	13 nM
N#Cc1cnn2c(-c3cc(Nc4cnn(CC(F)F)c4)c(C(=O)N[C@H]4CC[C@H](NC(=O)C5CC5)CC4)cn3)ccc2c1 [Example 519, 6-(3-cyanopyrrolo[1,2-b]pyridazin-7-yl)-N-((1r,4r)-4-(cyclopropane-carboxamido)cyclohexyl)-4-((1-(2,2-difluoroethyl)-1H-pyrazol-4-yl)amino) nicotinamide]	< 1 nM	34 nM
CC(C)(O)[C@H](F)CNC(=O)c1cnc(-c2ccc3cc(C#N)cnn23)cc1N[C@H]1CC[C@@H](O)C1 [Example 520, 6-(3-cyanopyrrolo[1,2-b]pyridazin-7-yl)-N-((R)-2-fluoro-3-hydroxy-3-methylbutyl)-4-(((1S,3R)-3-hydroxycyclopentyl)amino)nicotinamide]	< 1 nM	45 nM
CC(C)Nc1cc(-c2ccc3cc(C#N)cnn23)ncc1C(=O)NC1CCC(S(C)(=O)=O)CC1 (stereo not drawn) [Example 521, 6-(3-cyanopyrrolo[1,2-b]pyridazin-7-yl)-4-(iso-propylamino)-N-(4-(methylsulfonyl)cyclohexyl) nicotinamide]	62 nM	717 nM
